The record followed here is patent US20250145665A1, “MACROCYCLIC PEPTIDES USEFUL AS MODULATORS OF TNF ALPHA” (Bristol-Myers Squibb Company, priority 2023, published 2025).

Each structure is given as a SMILES string. Starred links: 1 amine or outer side, 2 acyl side, 3 side chain; linkers in the order of their positions; H or OH if unused. Positions of bridges follow the written chain, without caps; N, C: chain ends. Non-standard residues stand in square brackets, D forms with d. Residues, ends and D or L forms follow the SMILES beside them. *: point of attachment. Bip(4'-NHCO-C6H4-3-CH2COOH) = N[C@@H](Cc1ccc(-c2ccc(NC(=O)c3cccc(CC(=O)O)c3)cc2)cc1)C(=O)O; Bip(4'-NHCO-C6H4-4-CH2COOH) = N[C@@H](Cc1ccc(-c2ccc(NC(=O)c3ccc(CC(=O)O)cc3)cc2)cc1)C(=O)O; X5 = Cn1nc(C(=O)Nc2ccc(-c3ccc(C[C@H](N[*:1])C(=O)[*:2])cc3)cc2)c2ccccc21; Bip(4'-NH) = O=C([C@H](Cc1ccc(-c2ccc(N[*:3])cc2)cc1)N[*:1])[*:2]; dArg(ω-Bn(3-CH2OH)) = N=C(NCCC[C@@H](N)C(=O)O)NCc1cccc(CO)c1; Indazole3carbonyl(1-CH2COOH) = O=C(O)Cn1nc(C(=O)*)c2ccccc21; Bip(4'-COOH) = N[C@@H](Cc1ccc(-c2ccc(C(=O)O)cc2)cc1)C(=O)O; X7 = N=C(NCCC[C@@H](N[*:1])C(=O)[*:2])NCc1ccc2occc2c1; Ala(morpholin-4-yl) = N[C@@H](CN1CCOCC1)C(=O)O; Bip = N[C@@H](Cc1ccc(-c2ccccc2)cc1)C(=O)O; Cha = N[C@@H](CC1CCCCC1)C(=O)O; Tle = CC(C)(C)[C@H](N)C(=O)O; Sar = CNCC(=O)O Some results are limits rather than exact numbers.

One may read the IC50 as the midpoint of a concentration-inhibition curve.

In the first assay the target is TNFα (Homo sapiens, UniProt P01375). Put plainly: TNF-Induced HEK-Blue Assay.
Chain of TNFα (P01375 77-233 limits assumed): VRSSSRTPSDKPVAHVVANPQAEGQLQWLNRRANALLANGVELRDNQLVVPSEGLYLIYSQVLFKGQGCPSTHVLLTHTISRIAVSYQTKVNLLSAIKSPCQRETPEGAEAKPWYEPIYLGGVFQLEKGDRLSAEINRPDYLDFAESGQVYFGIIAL
Conditions: not given
Type of assay: cell-based.
In turn, `CC[C@H](C)[C@@H]1NC(=O)[C@@H](CCCNC(=N)NCc2cccc(CO)c2)NC(=O)[C@H](CC(=O)O)NC(=O)[C@H](Cc2cnc[nH]2)NC(=O)CN(C)C(=O)[C@H](Cc2ccc(-c3ccc(NC(=O)c4nn(CC(=O)O)c5ccccc45)cc3)cc2)NC(=O)[C@H](Cc2ccc(-c3ccccc3)cc2)NC(=O)[C@H](CC2CCCCC2)NC(=O)CSC[C@@H](C(=O)NCC(N)=O)NC(=O)[C@H](CC(C)C)NC(=O)[C@H](Cc2cnc[nH]2)NC(=O)[C@H](C(C)C)NC(=O)[C@@H]2CCCN2C1=O` [Example 477] ({CH2CO}-[Cha][Bip][Bip(4'-NH)](Indazole3carbonyl(1-CH2COOH))[Sar]HD[dArg(ω-Bn(3-CH2OH))]IPVHLCG-NH2; thioether N-13) came in with an IC50 of under 50 nM.
`CC[C@H](C)[C@@H]1NC(=O)[C@@H](CCCNC(=N)NCc2ccc3occc3c2)NC(=O)[C@H](CC(=O)O)NC(=O)[C@H](Cc2cnc[nH]2)NC(=O)CN(C)C(=O)[C@H](Cc2ccc(-c3ccc(NC(=O)c4nn(CC(=O)O)c5ccccc45)cc3)cc2)NC(=O)[C@H](Cc2ccc(-c3ccccc3)cc2)NC(=O)[C@H](CC2CCCCC2)NC(=O)CSC[C@@H](C(=O)NCC(N)=O)NC(=O)[C@H](CC(C)C)NC(=O)[C@H](Cc2cnc[nH]2)NC(=O)[C@H](C(C)C)NC(=O)[C@@H]2CCCN2C1=O` [Example 479] ({CH2CO}-[Cha][Bip][Bip(4'-NH)](Indazole3carbonyl(1-CH2COOH))[Sar]HD[X7]IPVHLCG-NH2; thioether N-13): the IC50 was under 50 nM.

Still in this assay, the particulars now being: HEK-Blue-CD40L cells, NF-kB-driven secreted alkaline phosphatase reporter; TNFα 0.5 ng/ml; 18 h; read-out: TNF induced HEK-Blue assay IC50 value.
Regarding `CC[C@H](C)[C@@H]1NC(=O)[C@@H](CCCNC(=N)NCc2cccc(CO)c2)NC(=O)[C@H](CC(=O)O)NC(=O)[C@H](Cc2cnc[nH]2)NC(=O)CN(C)C(=O)[C@H](Cc2ccc(-c3ccc(NC(=O)c4nn(C)c5ccccc45)cc3)cc2)NC(=O)[C@H](Cc2ccc(-c3ccccc3)cc2)NC(=O)[C@H](CC2CCCCC2)NC(=O)CSC[C@@H](C(=O)NCC(N)=O)NC(=O)[C@H](CC(C)C)NC(=O)[C@H](Cc2cnc[nH]2)NC(=O)[C@H](C(C)C)NC(=O)[C@@H]2CCCN2C1=O` [Example 478] ({CH2CO}-[Cha][Bip][X5][Sar]HD[dArg(ω-Bn(3-CH2OH))]IPVHLCG-NH2; thioether N-13), the half-inhibitory concentration (IC50) fell in the range of 50 to 200 nM.
Same read-out and setting: in the case of `CC[C@H](C)[C@@H]1NC(=O)[C@@H](CCCNC(=N)N)NC(=O)[C@H](CC(=O)O)NC(=O)[C@H](Cc2cnc[nH]2)NC(=O)CN(C)C(=O)[C@H](Cc2ccc(-c3ccc(NC(=O)c4cccc(CC(=O)O)c4)cc3)cc2)NC(=O)[C@H](Cc2ccc(-c3ccccc3)cc2)NC(=O)[C@H](CN2CCOCC2)NC(=O)CSC[C@@H](C(=O)NCC(N)=O)NC(=O)[C@H](CC(C)C)NC(=O)[C@H](Cc2cnc[nH]2)NC(=O)[C@H](C(C)C)NC(=O)[C@@H]2CCCN2C1=O` [Example 481] ({CH2CO}-[Ala(morpholin-4-yl)][Bip][Bip(4'-NHCO-C6H4-3-CH2COOH)][Sar]HD[dR]IPVHLCG-NH2; thioether N-13) it was under 50 nM; in that of `CC[C@H](C)[C@@H]1NC(=O)[C@@H](CCCNC(=N)N)NC(=O)[C@H](CC(=O)O)NC(=O)[C@H](Cc2cnc[nH]2)NC(=O)CN(C)C(=O)[C@H](Cc2ccc(-c3ccc(NC(=O)c4cccc(CC(=O)O)c4)cc3)cc2)NC(=O)[C@H](Cc2ccc(-c3ccc(C(=O)O)cc3)cc2)NC(=O)[C@H](C(C)(C)C)NC(=O)CSC[C@@H](C(=O)NCC(N)=O)NC(=O)[C@H](CC(C)C)NC(=O)[C@H](Cc2cnc[nH]2)NC(=O)[C@H](C(C)C)NC(=O)[C@@H]2CCCN2C1=O` [Example 482] ({CH2CO}-[Tle][Bip(4'-COOH)][Bip(4'-NHCO-C6H4-3-CH2COOH)][Sar]HD[dR]IPVHLCG-NH2; thioether N-13), under 50 nM; in that of `CC[C@H](C)[C@@H]1NC(=O)[C@@H](CCCNC(=N)N)NC(=O)[C@H](CC(=O)O)NC(=O)[C@H](Cc2cnc[nH]2)NC(=O)CN(C)C(=O)[C@H](Cc2ccc(-c3ccc(NC(=O)c4ccc(CC(=O)O)cc4)cc3)cc2)NC(=O)[C@H](Cc2ccc(-c3ccccc3)cc2)NC(=O)[C@H](CN2CCOCC2)NC(=O)CSC[C@@H](C(=O)NCC(N)=O)NC(=O)[C@H](CC(C)C)NC(=O)[C@H](Cc2cnc[nH]2)NC(=O)[C@H](C(C)C)NC(=O)[C@@H]2CCCN2C1=O` [Example 484] ({CH2CO}-[Ala(morpholin-4-yl)][Bip][Bip(4'-NHCO-C6H4-4-CH2COOH)][Sar]HD[dR]IPVHLCG-NH2; thioether N-13), under 50 nM.
On the same count and under the same terms, for `CC[C@H](C)[C@@H]1NC(=O)[C@@H](CCCNC(=N)N)NC(=O)[C@H](CC(=O)O)NC(=O)[C@H](Cc2cnc[nH]2)NC(=O)CN(C)C(=O)[C@H](Cc2ccc(-c3ccc(NC(=O)c4ccc(CC(=O)O)cc4)cc3)cc2)NC(=O)[C@H](Cc2ccc(-c3ccccc3)cc2)NC(=O)[C@H](C(C)(C)C)NC(=O)CSC[C@@H](C(=O)NCC(N)=O)NC(=O)[C@H](CC(C)C)NC(=O)[C@H](Cc2cnc[nH]2)NC(=O)[C@H](C(C)C)NC(=O)[C@@H]2CCCN2C1=O` [Example 485] ({CH2CO}-[Tle][Bip][Bip(4'-NHCO-C6H4-4-CH2COOH)][Sar]HD[dR]IPVHLCG-NH2; thioether N-13) the value was under 50 nM.
Same read-out and setting: in the case of `CC[C@H](C)[C@@H]1NC(=O)[C@@H](CCCNC(=N)N)NC(=O)[C@H](CC(=O)O)NC(=O)[C@H](Cc2cnc[nH]2)NC(=O)CN(C)C(=O)[C@H](Cc2ccc(-c3ccc(NC(=O)c4ccc(CC(=O)O)cc4)cc3)cc2)NC(=O)[C@H](Cc2ccc(-c3ccc(C(=O)O)cc3)cc2)NC(=O)[C@H](C(C)(C)C)NC(=O)CSC[C@@H](C(=O)NCC(N)=O)NC(=O)[C@H](CC(C)C)NC(=O)[C@H](Cc2cnc[nH]2)NC(=O)[C@H](C(C)C)NC(=O)[C@@H]2CCCN2C1=O` [Example 486] ({CH2CO}-[Tle][Bip(4'-COOH)][Bip(4'-NHCO-C6H4-4-CH2COOH)][Sar]HD[dR]IPVHLCG-NH2; thioether N-13) it was under 50 nM; in that of `CC[C@H](C)[C@@H]1NC(=O)[C@@H](CCCNC(=N)N)NC(=O)[C@H](CC(=O)O)NC(=O)[C@H](Cc2cnc[nH]2)NC(=O)CN(C)C(=O)[C@H](Cc2ccc(-c3ccc(NC(=O)c4ccc(CC(=O)O)cc4)cc3)cc2)NC(=O)[C@H](Cc2ccc(-c3ccc(C(=O)O)cc3)cc2)NC(=O)[C@H](CN2CCOCC2)NC(=O)CSC[C@@H](C(=O)NCC(N)=O)NC(=O)[C@H](CC(C)C)NC(=O)[C@H](Cc2cnc[nH]2)NC(=O)[C@H](C(C)C)NC(=O)[C@@H]2CCCN2C1=O` [Example 487] ({CH2CO}-[Ala(morpholin-4-yl)][Bip(4'-COOH)][Bip(4'-NHCO-C6H4-4-CH2COOH)][Sar]HD[dR]IPVHLCG-NH2; thioether N-13), under 50 nM; in that of `CC[C@H](C)[C@@H]1NC(=O)[C@@H](CCCNC(=N)N)NC(=O)[C@H](CC(=O)O)NC(=O)[C@H](Cc2cnc[nH]2)NC(=O)CN(C)C(=O)[C@H](Cc2ccc(-c3ccc(NC(=O)c4ccc(CC(=O)O)cc4)cc3)cc2)NC(=O)[C@H](Cc2ccc(-c3ccc(C(=O)O)cc3)cc2)NC(=O)[C@H](CC2CCCCC2)NC(=O)CSC[C@@H](C(=O)NCC(N)=O)NC(=O)[C@H](CC(C)C)NC(=O)[C@H](Cc2cnc[nH]2)NC(=O)[C@H](C(C)C)NC(=O)[C@@H]2CCCN2C1=O` [Example 488] ({CH2CO}-[Cha][Bip(4'-COOH)][Bip(4'-NHCO-C6H4-4-CH2COOH)][Sar]HD[dR]IPVHLCG-NH2; thioether N-13), under 50 nM.
